Measured values published in patent publication US9822089B2, “R type of resveratrol dimer, preparation process therefor and purpose thereof in lowering blood sugar level” (priority 2013, dated 2017).

Tests used:
[1] = system: sucrose-induced high blood sugar level of a mouse; experiment: orally-administered sucrose tolerance test for normal mice; format: in vivo; details: for Blood sugar concentration: drug 0.33 mg/ml suspension, 0.3 ml per 10 g intragastric 30 min before, x ± s, n = 10; for area under the sucrose tolerance test curve: FIG. 1, negative control group 21.0 mmol h/L; for blood glucose-lowering rate: compared with the negative control group; for lowering of sucrose-induced high blood sugar level of a mouse (in words): sucrose load
Protocol: A mean body weight of mice was 22 g to 25 g. The mice were randomly divided into 6 groups, and each group included 10 animals. Each group of animals was intragastrically administered with a drug after 12 hours of fasting.
For a normal control group, a 0.5% CMC-Na solution whose volume is equal to that of a positive control group was administered.
For a negative control group, a 0.5% CMC-Na solution whose volume is equal to that of a positive control group was administered.
For an acarbose group, a 0.33 mg/ml acarbose suspension that was prepared by using a 0.5% CMC-Na solution was administered at a dosage of 0.3 ml per 10 g of weight.
For a TVN racemate group, a 0.33 mg/ml TVN racemate suspension that was prepared by using a 0.5% CMC-Na solution was administered at a dosage of 0.3 ml per 10 g of weight.
For a (S,S)-TVN group, a 0.33 mg/ml (S,S)-TVN suspension that was prepared by using a 0.5% CMC-Na solution was administered tat a dosage of 0.3 ml per 10 g of weight.
For a (R,R)-TVN group, a 0.33 mg/ml (R,R)-TVN suspension that was prepared by using a 0.5% CMC-Na solution was administered at a dosage of 0.3 ml per 10 g of weight.
After 30 min, animals in the groups other than the normal group were intragastrically administered with a 6.7% sucrose solution at a dosage of 0.3 ml per 10 g of weight, and animals in the normal group were intragastrically administered with water whose volume is equal to that of the sucrose solution. Orbital blood sampling was separately performed at four time points, namely 0 h, 0.5 h, 1 h, and 2 h after intragastric administration of the sucrose solution to the animals. Then, 2 μL of blood serum was taken after centrifugation and added into a 96-pore plate. Thereafter, 200 μL of a reagent from a glucose assay kit was further added thereinto and a 505 nm micro-plate reader was used to measure a value of absorbance. A blood sugar concentration was obtained from a standard curve. Refer to the table below:
All data was represented by using a mean value±a standard deviation (x±s). SPSS11.5 software was used for analysis, and data comparison was performed by means of a one-way analysis of variance. P<0.05 represents that there was a significant difference; and P<0.01 represents that there was an extremely significant difference.

[2] = system: alpha-glucosidase; details: in vitro; multiple of the activity of acarbose; cited from earlier work
[3] = 0.5 h after intragastric sucrose

Compound	Blood sugar concentration ([1]; 0 h after intragastric sucrose) [mmol/L]	Blood sugar concentration [1, 3] [mmol/L]	Blood sugar concentration ([1]; 1 h after intragastric sucrose) [mmol/L]	Blood sugar concentration ([1]; 2 h after intragastric sucrose) [mmol/L]	area under the sucrose tolerance test curve [1] [mmol·h/L]	blood glucose-lowering rate ([1]; at 0.5 h) [%]	blood glucose-lowering rate ([1]; at 1 h) [%]	lowering of sucrose-induced high blood sugar level of a mouse (in words) [1]	alpha-glucosidase inhibitory activity relative to acarbose [2] [times]
Oc1ccc(C2Oc3ccc(/C=C/c4cc(O)cc(O)c4)cc3C2c2cc(O)cc(O)c2)cc1 (racemic) [TVN racemate, trans-δ-viniferin]	7.75 ± 1.57	10.34 ± 1.75	9.07 ± 1.55	8.83 ± 1.46	18.3	13.98	14.60	has a hypoglycemic activity between hypoglycemic activities of the both	254
Oc1ccc([C@@H]2Oc3ccc(/C=C/c4cc(O)cc(O)c4)cc3[C@H]2c2cc(O)cc(O)c2)cc1 [(R,R)-TVN, (7R,8R)-trans-δ-viniferin]	–	–	–	–	16.7	30.20	22.79	can significantly lower a sucrose-induced high blood sugar level of a mouse, and has a better effect than the TVN racemate	–
Oc1ccc([C@H]2Oc3ccc(/C=C/c4cc(O)cc(O)c4)cc3[C@@H]2c2cc(O)cc(O)c2)cc1 [(S,S)-TVN, (7S,8S)-trans-δ-viniferin]	–	–	–	–	20.9	0.08	3.01	cannot significantly lower a sucrose-induced high blood sugar level of a mouse	–
C[C@H]1O[C@H](O[C@H]2[C@H](O)[C@@H](O)[C@@H](O[C@H]3[C@H](O)[C@@H](O)C(O)O[C@@H]3CO)O[C@@H]2CO)[C@H](O)[C@@H](O)[C@@H]1N[C@H]1C=C(CO)[C@@H](O)[C@H](O)[C@H]1O (some centres unmarked) [Acarbose, acarbose]	7.94 ± 1.25	9.74 ± 1.45	8.32 ± 1.50	8.54 ± 1.04	–	18.97	21.66	–	–
